Assay results taken from ChEMBL document CHEMBL1134136, “Novel piperidinyloxy oxazolidinone antimicrobial agents” (2001).
In brackets after ≈: the same amount, converted by molar mass.

Columns and labels:
Format in all cases: functional
Enterococcus faecium [1] = assay: Antibacterial activity against vancomycin - resistant Enterococcus faecium (OC 3312 VRE)
Staphylococcus aureus [2] = assay: Antibacterial activity against methicillin susceptible Staphylococcus aureus (OC 4172) in presence of 50% mouse serum
Escherichia coli [3] = assay: Antibacterial activity against Escherichia coli (OC 2530) (HS)
Staphylococcus aureus [4] = assay: Antibacterial activity against methicillin susceptible Staphylococcus aureus (OC 4172) in broth (without serum)
Staphylococcus aureus [5] = assay: Antibacterial activity against methicillin - resistant Staphylococcus aureus (MRSA OC2878)
Enterococcus faecalis = assay: Antibacterial activity against Enterococcus faecalis (ATCC 29212)
Escherichia coli [6] = assay: Antibacterial activity against Escherichia coli (OC 2605)
Staphylococcus aureus [7] = assay: Antibacterial activity towards methicillin - resistant Staphylococcus aureus (MRSA OC2878)
Enterococcus faecium [8] = assay: Minimum inhibitory concentration against vancomycin - resistant Enterococcus faecium (OC 3312 VRE)

Row | Structure (SMILES) | MIC (Enterococcus faecium [1]) [µg/mL] | MIC (Staphylococcus aureus [2]) [µg/mL] | MIC (Escherichia coli [3]) [µg/mL] | MIC (Staphylococcus aureus [4]) [µg/mL] | MIC (Staphylococcus aureus [5]) [µg/mL] | MIC (Enterococcus faecalis) [µg/mL] | MIC (Escherichia coli [6]) [µg/mL] | MIC (Staphylococcus aureus [7]) [µg/mL] | MIC (Enterococcus faecium [8]) [µg/mL]
1 | CC(=O)NC[C@H]1CN(c2ccc(OC3CCN(C(=O)CO)C3)c(F)c2)C(=O)O1 (stereo partly drawn) | 16 (≈ 40.5 µM) | 4 | 128 (≈ 324 µM) | 4 (≈ 10.1 µM) | 8 (≈ 20.2 µM) | 16 (≈ 40.5 µM) | 128 (≈ 324 µM) |  | 
2 | CC(=O)NC[C@H]1CN(c2ccc(OC3CN(C(=O)COCc4ccccc4)C3)c(F)c2)C(=O)O1 | 16 (≈ 33.9 µM) | 16 | 64 (≈ 136 µM) | 8 (≈ 17 µM) | 8 (≈ 17 µM) | 16 (≈ 33.9 µM) | > 128 |  | 
3 | CC(=O)NC[C@H]1CN(c2ccc(OC3CN(C(=O)CO)C3)c(F)c2)C(=O)O1 | 16 (≈ 42 µM) | 8 | > 128 | 8 (≈ 21 µM) | 8 (≈ 21 µM) | 16 (≈ 42 µM) | > 128 |  | 
4 | CC(=O)NC[C@H]1CN(c2ccc(OC3CCN(C(=O)CO)CC3)cc2)C(=O)O1 | 32 (≈ 81.8 µM) | 32 | > 128 | 16 (≈ 40.9 µM) | 16 (≈ 40.9 µM) | 32 (≈ 81.8 µM) | > 128 |  | 
5 | CC(=O)NC[C@H]1CN(c2ccc(OC3CCN(C(=O)COCc4ccccc4)CC3)c(F)c2)C(=O)O1 | 4 (≈ 8.01 µM) | 16 | > 32 | 4 (≈ 8.01 µM) |  | 4 (≈ 8.01 µM) | > 128 | 2 (≈ 4 µM) | 
6 | CC(=O)NC[C@H]1CN(c2ccc(OC3CCCN(C(=O)COCc4ccccc4)C3)c(F)c2)C(=O)O1 (stereo partly drawn) | 64 (≈ 128 µM) | 32 | > 64 | 32 (≈ 64.1 µM) | 32 (≈ 64.1 µM) | 64 (≈ 128 µM) | > 128 |  | 
7 | CC(=O)NC[C@H]1CN(c2ccc(OC3CCN(C(=O)COCc4ccccc4)CC3)cc2)C(=O)O1 |  | 64 | 128 (≈ 266 µM) | 16 (≈ 33.2 µM) | 8 (≈ 16.6 µM) | 16 (≈ 33.2 µM) | 128 (≈ 266 µM) |  | 16 (≈ 33.2 µM)
8 | CC(=O)NC[C@H]1CN(c2ccc(OC3CCN(C(=O)CO)CC3)c(F)c2)C(=O)O1 | 8 (≈ 19.5 µM) | 4 | 128 (≈ 313 µM) | 4 (≈ 9.77 µM) | 4 (≈ 9.77 µM) | 8 (≈ 19.5 µM) | > 128 |  | 
9 | CC(=O)NC[C@H]1CN(c2ccc(OC3CCN(C(=O)COCc4ccccc4)C3)c(F)c2)C(=O)O1 (stereo partly drawn) | 16 (≈ 33 µM) | 16 | > 128 | 16 (≈ 33 µM) | 16 (≈ 33 µM) | 16 (≈ 33 µM) | > 128 |  | 
10 | CC(=O)NC[C@H]1CN(c2ccc(OC3CCCN(C(=O)CO)C3)c(F)c2)C(=O)O1 (stereo partly drawn) | 16 (≈ 39.1 µM) | 8 | 128 (≈ 313 µM) | 8 (≈ 19.5 µM) | 8 (≈ 19.5 µM) | 16 (≈ 39.1 µM) | > 128 |  | 
11 | CC(=O)NC[C@H]1CN(c2ccc(N3CCOCC3)c(F)c2)C(=O)O1 [LINEZOLID] | 2 (≈ 5.93 µM) |  | 8 (≈ 23.7 µM) |  |  |  | 32 (≈ 94.9 µM) |  | 
